Where two headings read alike, the source gives them in different places. Marks after values point to notes of the source that are not given here.
Legend:
[1] = Electrochemical impedance spectroscopy (EIS); format: physicochemical; details: for EIS D / EIS i^0 / EIS k^0: Example 2
Procedure: (§1) CV and EIS experiments were ran using a PalmSens4 potentiostat with the PSTrace software. Electrochemical experiments were performed in 1.0 M NaCl supporting electrolyte using 15 mM of active material at room temperature (18° C.). Formal potentials for the redox couples were estimated by taking the average potential between the cathodic and anodic peak. Diffusional behavior was investigated by varying the scan rate between 10-100 mV·s^−1 for the first electron reduction and 50-200 mV·s^−1 for the second electron reduction, and the diffusion constants of the reduced and oxidized states (D^R and D^O) were determined via the Randles-Sevcik equation assuming ideal reversible behavior (FIG. 12D). Potentiostatic EIS measurements were used for determination of a combined diffusional constant of the reduced and oxidized states (D^EIS) and of the standard electron kinetic rate constant (k^o). These EIS measurements were performed at the formal reduction potential (held for 30 seconds before measurement) in which the concentration of the two redox states at the electrode surface were assumed to be the same and equal to half of the initially prepared redox species concentration.
(§2) A glassy carbon working electrode (CH Instruments, 0.0707 cm^2), a saturated calomel reference electrode (SCE, CH Instruments, +0.241 V vs. SHE), and a platinum wire counter electrode were used for both CV and EIS measurements. The working electrode was polished with 1 μm, 0.3 μm, and 0.05 μm alumina slurry successively. All electrodes were rinsed with deionized water in between measurements.
Potentiostatic EIS measurements were taken at the formal potential in which the reduction and oxidation processes are at equilibrium and the concentrations of the reduced and oxidized states can be assumed equal. This permitted simple calculation of the standard kinetic rate constant (k^o) via Eqn. 2 where R is the ideal gas constant, T is temperature, n is number of electrons, RCT is the charge-transfer resistance, F is Faraday's constant, A is the electrode surface area in cm^2, and C is the concentration of either the oxidized or reduced form at the electrode surface in mole cm^−3 (which is assumed to be half of the initially prepared redox species concentration, C═C^O═C^R=0.5 Cinitial).
A combined diffusion coefficient of the reduced and oxidized state (D^EIS) can also be determined using Eqn. 3, where σ is the Warburg diffusional impedance variable and all other variables have the previously defined meaning.
RCT and σ can be determined by fitting the impedance spectrum to the ideal Randles equivalent circuit for a 3-electrode system where Ru is the uncompensated resistance between the working and reference electrode, RCT is the charge transfer resistance between the working electrode and the redox species, WD is the Warburg diffusional element, and CPE is the constant phase element that represents capacitive behavior of the working electrode.
The raw data was fitted based on this equivalent circuit using the Z-Fitting tool on the PSTrace software and with the Levenberg-Marquardt algorithm across the entire measured frequency range. For the second redox state, D2^EIS were 3.6×10^−6 cm^2·s^−1 and 3.8×10^−6 cm^2·s^−1 and k2^o were 0.13 cm·s^−1 and 0.23 cm·s^−1 for Dex-Vi and BTMAP-Vi, respectively.

[2] = Solubility in pure water; format: physicochemical; details: Example 2
Procedure: A measured amount of Dex-Vi was partially dissolved in pure water. The solution was then centrifuged. The supernatant was decanted, and the volume was measured. The remainder of the solid was dried in a vacuum oven and weighed. Finally, the weight of the remaining Dex-Vi was subtracted from the initial added mass to obtain the amount dissolved in the supernatant, permitting calculation of the maximum soluble concentration.

[3] = Viscosity (rheometer); format: physicochemical; details: 1M, 25° C.
Procedure: Viscosity measurements were carried out using an Ares G2 rheometer (TA Instruments) with an advanced Peltier system at 25° C.

[4] = Degradation in 1M KOH; format: physicochemical
[5] = Selemion DSV membrane; cited from earlier work
[6] = Cyclic voltammetry (formal potentials, Randles-Sevcik diffusion coefficients); format: physicochemical
Procedure: as §1, §2
CVs were taken at various scan rates in order to determine the diffusion coefficients via the Randles-Sevcik relation (Eqn. 1) where ip is the peak current in Amps, n is number of electrons transferred, F is Faraday's constant, A is electrode surface area in cm^2, C is the redox species concentration in mole·cm^−3, R is the ideal gas constant, T is temperature, D is the diffusion coefficient, and v is scan rate in V/s. The anodic peak current […] determines the diffusion coefficient of the reduced state (D^R) while the cathodic peak current (ip,a) determines the diffusion coefficient of the oxidized state (D^O). ip=0.4463n^3/2·F^3/2·A·C·R^−1/2·T^−1/2·D^1/2·v^1/2 Eqn. 1

[7] = same electrolyte conditions; cited from earlier work
[8] = cited from earlier work; for Anolyte-limiting RFB Stability / RFB Viologen Molarity (1e^−): Table 1, comparison anolytes
[9] = Table 1, MV; cited from earlier work
[10] = Table 1, MV; cited from earlier work; remark: listed apart in the source

| SMILES | EIS D [1] | EIS i^0 [1] | EIS k^0 [1] | Water Solubility [2] | Viscosity at 1M, 25° C. [3] | Degradation in 1M KOH, k [4] | other results |
| --- | --- | --- | --- | --- | --- | --- | --- |
| O=S(=O)([O-])CC(O)C[n+]1ccc(-c2cc[n+](CC(O)CO)cc2)cc1.[Cl-] (centres unmarked) [DiOH-SHOP-Vi] | 5.419E−06 cm^2/s | 4.06E−03 A | 0.0794 cm/s | <0.5 M |  |  |  |
| OCC[n+]1ccc(-c2cc[n+](CCO)cc2)cc1.[Cl-].[Cl-] [EtOH-Vi] | 9.868E−06 cm^2/s | 4.53E−03 A | 0.0885 cm/s | 2.51 M | 2.4 cP |  |  |
| C[N+](C)(C)CC(O)C[n+]1ccc(-c2cc[n+](CC(O)CS(=O)(=O)[O-])cc2)cc1.[Cl-].[Cl-] (centres unmarked) [Dex-SHOP-Vi] | 4.497E−06 cm^2/s | 1.57E−03 A | 0.0307 cm/s | 1.27 M |  |  |  |
| C[N+](C)(C)CC(O)C[n+]1ccc(-c2cc[n+](CC(O)CO)cc2)cc1.[Cl-].[Cl-].[Cl-] (centres unmarked) [Dex-DiOH-Vi] | 5.562E−06 cm^2/s | 6.20E−03 A | 0.121 cm/s | 1.73 M | 3.9 cP | 4.06e-06 s⁻¹ |  |
| O=S(=O)([O-])CC[n+]1ccc(-c2cc[n+](CC(O)CO)cc2)cc1.[Cl-] (centres unmarked) [DiOH-EtS-Vi] | 8.134E−06 cm^2/s | 7.76E−03 A | 0.152 cm/s | 1.26 M | 2.9 cP | 4.4e-06 s⁻¹ |  |
| O=S(=O)([O-])CC[n+]1ccc(-c2cc[n+](CCS(=O)(=O)[O-])cc2)cc1 [EtS-Vi] | 5.2921E−06 cm^2/s | 3.47E−03 A | 0.0677 cm/s | 0.53 M |  |  |  |
| C[N+](C)(C)CCC[n+]1ccc(-c2cc[n+](CCC[N+](C)(C)C)cc2)cc1.[Cl-].[Cl-].[Cl-].[Cl-] [BTMAP-Vi, bis(3-trimethylammonio)propyl viologen tetrachloride, reference compound] |  |  |  |  |  |  | k1^0 ([1]; Table 1): 0.089 cm/s; combined diffusion coefficient (D1^EIS) ([1]; first reduction): 4.1×10^−6 cm^2·s^−1; standard rate constant (k1^0) ([1]; first reduction): 0.089 cm/s; D2^EIS ([1]; second redox state): 3.8×10^−6 cm^2·s^−1; k2^o ([1]; second redox state): 0.23 cm/s; permeance, reported value [5]: 6.7×10^−10 cm^2·s^−1; first electron formal potential (E1^0) ([6]; 15 mM in 1.0 M NaCl, 18° C.): −0.349 V vs. SHE; E1^0 ([6]; Table 1): −0.349 V vs. SHE; E2^0 ([6]; Table 1): −0.713 V vs. SHE; reduced state diffusion coefficient (D1^R) ([6]; first redox state, 3+ species): 2.7×10^−6 cm^2·s^−1; oxidized state diffusion coefficient (D1^O) ([6]; first redox state, 4+ species): 2.4×10^−6 cm^2·s^−1; D2^O ([6]; second redox state): 2.3×10^−6 cm^2·s^−1; D2^R ([6]; second redox state): 2.5×10^−6 cm^2·s^−1; second electron formal potential (E2^0) ([6]; vs. SHE, 15 mM in 1.0 M NaCl, 18° C.): −0.713 V; reported symmetric cell decay rate [7]: 0.0016 % per day; reported concentration when both electrons are utilized ([8]; DeBruler et al., 2017): 0.25 M; Anolyte-limiting RFB Stability [8]: 36.5% decay/year; RFB Viologen Molarity (1e^−) [8]: 1.5 |
| OCC(O)C[n+]1ccc(-c2cc[n+](CC(O)CO)cc2)cc1.[Cl-].[Cl-] (centres unmarked) [DiOH-Vi] | 6.622E−06 cm^2/s | 1.14E−03 A | 0.0222 cm/s | 1.99 M | 3.0 cP | 2.296e-06 s⁻¹ |  |
| OCCCC[n+]1ccc(-c2cc[n+](CCCCO)cc2)cc1.[Cl-].[Cl-] [ButOH-Vi] | 2.36E−05 cm^2/s | 1.25E−05 A | 0.000244 cm/s | 1.36 M | 1.6 cP |  |  |
| C[n+]1ccc(-c2cc[n+](C)cc2)cc1 [MV] |  |  |  |  |  |  | k1^0 [9]: 0.00028 cm/s; E1^0 [10]: −0.450/NA V vs. SHE; Anolyte-limiting RFB Stability [8]: >547.5%* % decay/year; RFB Viologen Molarity (1e^−) [8]: 0.5 |

Reference: US12291513B2, “Pyridinium derivatives made by hydrothermal synthesis for use as anolytes in electrochemical cells” (Wisconsin Alumni Research Foundation, priority 2021, dated 2025)
